For 27 molecules, melting point and IC50 results are on record in patent publication US7601716B2, “Pyridopyrazines and derivatives thereof as ALK and c-Met inhibitors” (Cephalon, Inc., priority 2006, dated 2009).

Counter-ions that a name gives are not always drawn. Some results are limits rather than exact numbers.

For data set [1], the target named is baculovirus-expressed ALK (Homo sapiens, UniProt Q9UM73). The experiment in a line: ALK Kinase Assay (ELISA/TRF, PLC-γ substrate). Also: 1 µM ATP (Km level). Type of data set: biochemical. As to conditions: read-out: ALK Kinase Inhibition (IC50). The procedure, abridged:
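An ELISA adapted from a trkA format was used: wells carried GST-fused PLC-γ substrate, and enzyme addition (30 ng/ml ALK) started a 15-minute reaction at 37° C.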
(In general: In an ELISA, binding on a coated surface is turned into a signal by an enzyme label.)

Data set [2] addresses T1, c-Met (cytoplasmic domain) (Homo sapiens, UniProt P08581).
T1 construct: Reactions were initiated with 30 ng/mL c-Met (cytoplasmic domain, Invitrogen Corporation #PV3143); purchased Invitrogen Corporation PV3143
The data set can be described thus: c-Met Kinase Assay (ELISA/TRF, PLC-γ substrate). The format is biochemical. The conditions noted are these: 3 μM ATP (Km level); read-out: c-Met Kinase Inhibition (IC50). The procedure, abridged: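 c-Met cytoplasmic domain (30 ng/mL) phosphorylates plate-coated GST–PLC-γ for 15 min at 37 °C. Phosphotyrosine detected with Eu-labeled PT66 antibody by time-resolved fluorescence. IC50 from variable-slope sigmoidal fit of % inhibition vs log concentration.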

baculovirus-expressed ALK, sequence (Q9UM73 19-1620): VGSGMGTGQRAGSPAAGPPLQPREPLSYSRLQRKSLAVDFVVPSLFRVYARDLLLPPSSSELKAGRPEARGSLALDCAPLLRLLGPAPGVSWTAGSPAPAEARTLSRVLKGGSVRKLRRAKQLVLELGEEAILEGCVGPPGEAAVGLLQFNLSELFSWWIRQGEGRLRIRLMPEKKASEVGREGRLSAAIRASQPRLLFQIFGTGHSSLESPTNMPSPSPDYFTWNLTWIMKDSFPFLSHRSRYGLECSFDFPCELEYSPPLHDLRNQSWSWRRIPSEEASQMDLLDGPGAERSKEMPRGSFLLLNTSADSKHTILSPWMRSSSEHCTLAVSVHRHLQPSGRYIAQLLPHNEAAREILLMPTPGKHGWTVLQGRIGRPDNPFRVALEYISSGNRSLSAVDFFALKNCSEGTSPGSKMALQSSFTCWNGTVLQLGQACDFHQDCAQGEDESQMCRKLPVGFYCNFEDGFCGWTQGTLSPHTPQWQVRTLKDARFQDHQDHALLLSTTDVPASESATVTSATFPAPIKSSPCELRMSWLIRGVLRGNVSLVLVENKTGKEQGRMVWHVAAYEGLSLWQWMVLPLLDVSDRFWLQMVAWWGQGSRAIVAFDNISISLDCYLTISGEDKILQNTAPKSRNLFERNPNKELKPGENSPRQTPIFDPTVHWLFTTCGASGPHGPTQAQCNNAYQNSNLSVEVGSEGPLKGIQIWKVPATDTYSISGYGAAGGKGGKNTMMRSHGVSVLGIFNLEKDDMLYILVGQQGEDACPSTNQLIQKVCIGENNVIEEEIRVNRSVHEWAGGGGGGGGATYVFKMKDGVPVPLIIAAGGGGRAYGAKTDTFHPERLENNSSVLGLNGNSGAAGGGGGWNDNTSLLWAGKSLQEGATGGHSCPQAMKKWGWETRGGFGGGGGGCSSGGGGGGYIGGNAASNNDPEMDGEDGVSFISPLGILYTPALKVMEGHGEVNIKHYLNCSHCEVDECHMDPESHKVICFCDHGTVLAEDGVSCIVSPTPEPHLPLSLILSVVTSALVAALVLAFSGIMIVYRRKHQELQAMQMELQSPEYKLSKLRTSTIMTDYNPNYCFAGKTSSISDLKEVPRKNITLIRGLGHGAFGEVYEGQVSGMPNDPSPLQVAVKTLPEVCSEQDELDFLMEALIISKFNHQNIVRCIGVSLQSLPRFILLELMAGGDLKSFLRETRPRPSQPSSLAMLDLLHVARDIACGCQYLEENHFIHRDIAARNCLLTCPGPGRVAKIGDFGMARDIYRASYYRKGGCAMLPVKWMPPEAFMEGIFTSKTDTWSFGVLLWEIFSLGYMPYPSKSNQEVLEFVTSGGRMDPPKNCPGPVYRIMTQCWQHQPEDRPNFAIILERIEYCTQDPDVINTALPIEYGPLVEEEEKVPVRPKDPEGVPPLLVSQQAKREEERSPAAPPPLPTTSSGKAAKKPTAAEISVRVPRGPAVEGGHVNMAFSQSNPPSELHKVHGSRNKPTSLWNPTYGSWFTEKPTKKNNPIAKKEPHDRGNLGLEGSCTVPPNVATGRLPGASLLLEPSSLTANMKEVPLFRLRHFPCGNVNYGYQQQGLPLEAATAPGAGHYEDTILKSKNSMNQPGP
T1 sequence (P08581 956-1390 limits assumed): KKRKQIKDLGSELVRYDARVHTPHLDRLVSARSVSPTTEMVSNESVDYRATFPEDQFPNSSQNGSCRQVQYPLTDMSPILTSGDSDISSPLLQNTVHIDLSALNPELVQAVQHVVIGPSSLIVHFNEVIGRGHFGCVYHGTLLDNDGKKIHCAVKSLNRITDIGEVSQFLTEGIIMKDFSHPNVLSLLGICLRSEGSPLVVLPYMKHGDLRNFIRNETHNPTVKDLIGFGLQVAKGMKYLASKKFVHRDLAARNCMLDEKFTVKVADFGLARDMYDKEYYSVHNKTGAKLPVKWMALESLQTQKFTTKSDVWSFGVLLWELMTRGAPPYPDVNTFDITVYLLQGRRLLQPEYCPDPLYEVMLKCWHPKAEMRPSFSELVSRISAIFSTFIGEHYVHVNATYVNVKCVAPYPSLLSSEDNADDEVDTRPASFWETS

What is called melting point is the temperature, or range, at which the solid turns liquid. Take `O=C1CN(Cc2c(F)ccc(F)c2Cl)c2cc(Br)cnc2N1` [Example 436, 7-Bromo-1-(2-chloro-3,6-difluorobenzyl)-1,4-dihydro-2H-pyrido[2,3-b]pyrazin-3-one]: the melting point was 214 to 216 °C (dec.).

In general, IC50 refers to the midpoint of a concentration-inhibition curve. `CC(c1cc(F)ccc1F)N1C(=O)CNc2ncc(-c3ccc(C(=O)N4CCN(C)CC4)cc3)cc21` (centres unmarked) [Example 152, 1-[1-(2,5-Difluorophenyl)ethyl]-7-[4-(4-methylpiperazine-1-carbonyl)phenyl]-3,4-dihydro-1H-pyrido[2,3-b]pyrazin-2-one, trifluoroacetic acid salt]: the IC50 in data set [1] fell in the range of 1000 to 10000 nM; in data set [2], 10 to 100 µM.

With `O=C1CNc2ncc(-c3cccnc3)cc2N1Cc1c(F)ccc(F)c1Cl` [Example 4, 1-(2-Chloro-3,6-difluorobenzyl)-7-pyridin-3-yl-3,4-dihydro-1H-pyrido[2,3-b]pyrazin-2-one, trifluoroacetic acid salt], the results for the IC50 in data set [1] and in data set [2] were 1000 to 10000 nM and 10 to 100 µM, respectively.

In the case of `O=C(NC1CCCCC1)c1cnc2c(c1)N(Cc1cc(Cl)ccc1Cl)CCN2` [Example 248, 1-(2,5-Dichlorobenzyl)-1,2,3,4-tetrahydropyrido[2,3-b]pyrazine-7-carboxylic acid cyclohexylamide], the IC50 in data set [1] was 1000 to 10000 nM; in data set [2] it was above 100 µM.

As to `O=C(c1cnc2c(c1)N(Cc1cc(Cl)ccc1Cl)CCN2)N1CCC(Cc2ccccc2)CC1` [Example 215, (4-Benzylpiperidin-1-yl)-[1-(2,5-dichlorobenzyl)-1,2,3,4-tetrahydropyrido[2,3-b]pyrazin-7-yl]methanone], the IC50 lay in the range of 10000 to 100000 nM in data set [1] and 10 to 100 µM in data set [2].

For the molecule `CN(C)CCCCNC(=O)c1ccc(-c2cnc3c(c2)N(Cc2ccccc2)C(=O)CN3)cc1` [Example 15, 4-(1-Benzyl-2-oxo-1,2,3,4-tetrahydropyrido[2,3-b]pyrazin-7-yl)-N-(4-dimethylaminobutyl)benzamide, trifluoroacetic acid salt], the IC50 lay within 1000 to 10000 nM in data set [1] and 10 to 100 µM in data set [2].

Take `O=C(c1cnc2c(c1)N(Cc1cc(Cl)ccc1Cl)CCN2)N1CCC(c2noc3cc(F)ccc23)CC1` [Example 221, [1-(2,5-Dichlorobenzyl)-1,2,3,4-tetrahydropyrido[2,3-b]pyrazin-7-yl]-[4-(6-fluorobenzo[d]isoxazol-3-yl)piperidin-1-yl]methanone]: the results for the IC50 in data set [1] and in data set [2] were 10000 to 100000 nM and above 100 µM, respectively.

Consider `CN(C)CCn1cc(-c2cnc3c(c2)N(Cc2c(F)ccc(F)c2Cl)CCN3)cn1` [Example 197, (2-{4-[1-(2-Chloro-3,6-difluorobenzyl)-1,2,3,4-tetrahydropyrido[2,3-b]pyrazin-7-yl]-pyrazol-1-yl}ethyl)dimethylamine], for which the figures for the IC50 in data set [1] and in data set [2] were 100 to 1000 nM and 1 to 10 µM, respectively.

Turning to `O=C1CNc2ncc(-c3cccc(C(=O)N4CCC[C@H]4CN4CCCC4)c3)cc2N1Cc1ccccc1` [Example 18, S-1-Benzyl-7-[3-(2-[(pyrrolidin-1-yl)methyl]pyrrolidine-1-carbonyl)phenyl]-3,4-dihydro-1H-pyrido[2,3-b]pyrazin-2-one, trifluoroacetic acid salt], the IC50 in data set [1] was in the range of 1000 to 10000 nM; in data set [2] it was 10 to 100 µM.

Turning to `CC(c1cc(F)ccc1F)N1C(=O)CNc2ncc(I)cc21` (centres unmarked) [Example 150, 1-[1-(2,5-Difluorophenyl)ethyl]-7-iodo-3,4-dihydro-1H-pyrido[2,3-b]pyrazin-2-one], the IC50 is above 100000 nM in data set [1] and above 100 µM in data set [2].

In the case of `CN1CCN(c2ccc(-c3cnc4c(c3)N(Cc3cc(Cl)ccc3Cl)CCN4C)cn2)CC1` [Example 188, 1-(2,5-Dichlorobenzyl)-4-methyl-7-[6-(4-methylpiperazin-1-yl)pyridin-3-yl]-1,2,3,4-tetrahydropyrido[2,3-b]pyrazine], the IC50 was 1000 to 10000 nM in data set [1] and above 100 µM in data set [2].

Take `CN(C)CCCCCCNC(=O)c1ccc(-c2cnc3c(c2)N(Cc2c(Cl)cccc2Cl)C(=O)CN3)cc1` [Example 143, 4-[1-(2,6-Dichlorobenzyl)-2-oxo-1,2,3,4-tetrahydropyrido[2,3-b]pyrazin-7-yl]-N-(6-dimethylaminohexyl)benzamide, trifluoroacetic acid salt]: the results for the IC50 in data set [1] and in data set [2] were 100 to 1000 nM and 1 to 10 µM, respectively.

For the molecule `NS(=O)(=O)c1ccc(CCNC(=O)c2cnc3c(c2)N(Cc2cc(Cl)ccc2Cl)CCN3)cc1` [Example 240, 1-(2,5-Dichlorobenzyl)-1,2,3,4-tetrahydropyrido[2,3-b]pyrazine-7-carboxylic acid [2-(4-sulfamoylphenyl)ethyl]amide], the figures for the IC50 in data set [1] and in data set [2] were 100 to 1000 nM and above 100 µM, respectively.

For the molecule `CC(=O)N1CCN(C(=O)c2cnc3c(c2)N(Cc2cc(Cl)ccc2Cl)CCN3)CC1` [Example 227, 1-{4-[1-(2,5-Dichlorobenzyl)-1,2,3,4-tetrahydropyrido[2,3-b]pyrazine-7-carbonyl]piperazin-1-yl}ethanone], the IC50 fell in the range of 10000 to 100000 nM in data set [1] and 10 to 100 µM in data set [2].

Turning to `CN1CCN(C(=O)c2ccc(-c3cnc4c(c3)C(O)CCN4)cc2)CC1` (centres unmarked) [Example 270, [4-(5-Hydroxy-5,6,7,8-tetrahydro-[1,8]naphthyridin-3-yl)phenyl]-(4-methyl-piperazin-1-yl)methanone], the IC50 was above 100000 nM in data set [1] and above 100 µM in data set [2].

Turning to `O=C(NCCc1cccs1)c1cnc2c(c1)N(Cc1cc(Cl)ccc1Cl)CCN2` [Example 232, 1-(2,5-Dichlorobenzyl)-1,2,3,4-tetrahydropyrido[2,3-b]pyrazine-7-carboxylic acid (2-thiophen-2-yl-ethyl)amide], the IC50 was 100 to 1000 nM in data set [1] and above 100 µM in data set [2].

As for `O=C(NC1CCc2ccccc21)c1cnc2c(c1)N(Cc1cc(Cl)ccc1Cl)CCN2` (centres unmarked) [Example 245, 1-(2,5-Dichlorobenzyl)-1,2,3,4-tetrahydropyrido[2,3-b]pyrazine-7-carboxylic acid indan-1-ylamide], the IC50 lay in the range of 100 to 1000 nM in data set [1] and 10 to 100 µM in data set [2].

For `O=C(NCCc1ccccc1)c1cnc2c(c1)N(Cc1cc(Cl)ccc1Cl)CCN2` [Example 253, 1-(2,5-Dichlorobenzyl)-1,2,3,4-tetrahydropyrido[2,3-b]pyrazine-7-carboxylic acid phenethyl-amide], the IC50 in data set [1] was 100 to 1000 nM; in data set [2], above 100 µM.

In the case of `O=C(O)c1cccc(-c2cnc3c(c2)N(Cc2cc(Cl)ccc2C(F)(F)F)CCN3)c1` [Example 196, 3-{1-[5-Chloro-2-(trifluoromethyl)benzyl]-1,2,3,4-tetrahydropyrido[2,3-b]pyrazin-7-yl}benzoic acid], the IC50 in data set [1] was 1000 to 10000 nM; in data set [2], 10 to 100 µM.

Consider `O=C1CNc2ncc(-c3ccc(NS(=O)(=O)CCN4CCCC4)cc3)cc2N1Cc1ccccc1` [Example 45, 2-Pyrrolidin-1-yl-ethanesulfonic acid[4-(1-benzyl-2-oxo-1,2,3,4-tetrahydropyrido[2,3-b]pyrazin-7-yl)phenyl]amide, trifluoroacetic acid salt], for which the IC50 in data set [1] is 1000 to 10000 nM; in data set [2], above 100 µM.

`NS(=O)(=O)c1ccc(CNC(=O)c2cnc3c(c2)N(Cc2cc(Cl)ccc2Cl)CCN3)cc1` [Example 263, 1-(2,5-Dichlorobenzyl)-1,2,3,4-tetrahydropyrido[2,3-b]pyrazine-7-carboxylic acid 4-sulfamoyl-benzylamide]: the results for the IC50 in data set [1] and in data set [2] were 1000 to 10000 nM and above 100 µM, respectively.

For the molecule `O=C(NCCc1ccccn1)c1cnc2c(c1)N(Cc1cc(Cl)ccc1Cl)CCN2` [Example 223, 1-(2,5-Dichlorobenzyl)-1,2,3,4-tetrahydropyrido[2,3-b]pyrazine-7-carboxylic acid (2-pyridin-2-yl-ethyl)amide], the IC50 is 1000 to 10000 nM in data set [1] and above 100 µM in data set [2].

Take `CN1CCN(c2ccc(-c3cnc4c(c3)N(Cc3cccc(F)c3C(F)(F)F)CCN4)cn2)CC1` [Example 181, 1-[3-Fluoro-2-(trifluoromethyl)benzyl]-7-[6-(4-methylpiperazin-1-yl)pyridin-3-yl]-1,2,3,4-tetrahydropyrido[2,3-b]pyrazine]: the values for the IC50 in data set [1] and in data set [2] were 100 to 1000 nM and 1 to 10 µM, respectively.

As to `O=C(c1cnc2c(c1)N(Cc1cc(Cl)ccc1Cl)CCN2)N1CCC(c2ccccc2)CC1` [Example 212, [1-(2,5-Dichlorobenzyl)-1,2,3,4-tetrahydropyrido[2,3-b]pyrazin-7-yl]-(4-phenylpiperidin-1-yl)methanone], the figures for the IC50 in data set [1] and in data set [2] were 1000 to 10000 nM and 1 to 10 µM, respectively.

Take `O=C(c1cnc2c(c1)N(Cc1cc(Cl)ccc1Cl)CCN2)N1CCN(CCc2ccccc2)CC1` [Example 260, [1-(2,5-Dichlorobenzyl)-1,2,3,4-tetrahydropyrido[2,3-b]pyrazin-7-yl]-(4-phenethyl-piperazin-1-yl)methanone]: the IC50 in data set [1] was 1000 to 10000 nM; in data set [2] it was above 100 µM.

As to `CCOC(=O)c1ccc(-c2cnc3c(c2)N(Cc2ccccc2)C(=O)CN3)cn1` [Example 29, 5-(1-Benzyl-2-oxo-1,2,3,4-tetrahydropyrido[2,3-b]pyrazin-7-yl)pyridine-2-carboxylic acid ethyl ester], the IC50 in data set [1] was in the range of 100 to 1000 nM; in data set [2] it was 10 to 100 µM.

For `O=S(=O)(c1ccccc1)N1CCNc2ncc(I)cc21` [Example 123, 1-Benzenesulfonyl-7-iodo-1,2,3,4-tetrahydropyrido[2,3-b]pyrazine], the values for the IC50 in data set [1] and in data set [2] were 10000 to 100000 nM and 10 to 100 µM, respectively.
